Results taken from patent US11530196B2, “Pyrimidine compound acting on EGFR and ERBB2” (CHINA RESOURCES PHARMACEUTICAL HOLDINGS COMPANY LIMITED, priority 2019, dated 2022).

Key:
[1] = molecular target: Ba/F3 EGFR-D770_N771insSVD (Homo sapiens, UniProt P00533, DUP768-770, cells depend on it); assay: Anti-proliferation against Ba/F3 exon 20 insertion mutant cells (SVD); type: cell-based, mouse; conditions: CTG, 72 hours, read-out: Mutant cells IC50 (anti-proliferation)
Source text: RPMI1640 medium was purchased from Hyclone, FBS fetal bovine serum was purchased from GBICO, and trypsin-EDTA were both purchased from Giboco. DPBS was purchased from Corning, penicillin/streptomycin solution was purchased from Hyclone, and Cell-Titer Glo reagent was purchased from Promega (Cat. No. G7572). Ba/F3 EGFR-D770_N771insSVD, Ba/F3 EGFR-H773_V774insNPH, Ba/F3 EGFR-V769_D770insASV, BaF3 ERBB2 A775_G776 ins YVMA, the cell lines were constructed by Beijing Kang Yuan Bochuang Biotechnology Co., Ltd. Plate reading instrument: Envision (PerkinElmer).
Cells in logarithmic growth phase were harvested and cell counts were performed using a […]. Cell viability was detected by the Taipan Blue rejection assay. The cell concentration was adjusted; the cell suspension was added to a 96-well plate separately. Cells in 96-well plates were incubated overnight at 37° C., 5% CO2, and 95% humidity. To prepare the drug solution, 10 μL of drug solution was added to each well of the 96-well plate inoculated with cells, and three replicate wells were set up for each drug concentration. The cells in the 96-well plates added with drugs were placed at 37° C., 5% CO2, 95% humidity and continued to incubate for 72 hours, after which CTG analysis was performed and the cells were vibrated on an orbital shaker to lyse the cells. The cell plate was placed at room temperature to stabilize the cold light signal, and the cold light values were read. The data were analyzed using GraphPad Prism 7.0 software, and a nonlinear S-curve regression was used to fit the data to derive the dose-effect curve from which the IC50 values were calculated.
The IC50 of anti-proliferation activity against Ba/F3 Exon20 insertion mutant cells of the compounds of the present disclosure is shown in Table 5.
Ba/F3 exon 20 insertion mutant cells are cell lines with SVD, NPH, ASV, and YVMA insertion mutations artificially constructed using mouse B cells, and it can be seen from Table 5 that the compounds of the present disclosure have better cellular anti-proliferation activity against the […] exon 20 insertion mutations such as SVD, NPH, ASV, and YVMA, and also show better anti-proliferation activity against common exon 20 insertion mutations such as SVD mutation.

[2] = system: non-small cell lung cancer with EGFR and HER2 exon 20 insertion mutation; conditions: clinical reports, NSCLC with EGFR and HER2 exon 20 insertion mutation; cited from earlier work

Chain of Ba/F3 EGFR-D770_N771insSVD (P00533 with tags, fused parts or gaps DUP768-770): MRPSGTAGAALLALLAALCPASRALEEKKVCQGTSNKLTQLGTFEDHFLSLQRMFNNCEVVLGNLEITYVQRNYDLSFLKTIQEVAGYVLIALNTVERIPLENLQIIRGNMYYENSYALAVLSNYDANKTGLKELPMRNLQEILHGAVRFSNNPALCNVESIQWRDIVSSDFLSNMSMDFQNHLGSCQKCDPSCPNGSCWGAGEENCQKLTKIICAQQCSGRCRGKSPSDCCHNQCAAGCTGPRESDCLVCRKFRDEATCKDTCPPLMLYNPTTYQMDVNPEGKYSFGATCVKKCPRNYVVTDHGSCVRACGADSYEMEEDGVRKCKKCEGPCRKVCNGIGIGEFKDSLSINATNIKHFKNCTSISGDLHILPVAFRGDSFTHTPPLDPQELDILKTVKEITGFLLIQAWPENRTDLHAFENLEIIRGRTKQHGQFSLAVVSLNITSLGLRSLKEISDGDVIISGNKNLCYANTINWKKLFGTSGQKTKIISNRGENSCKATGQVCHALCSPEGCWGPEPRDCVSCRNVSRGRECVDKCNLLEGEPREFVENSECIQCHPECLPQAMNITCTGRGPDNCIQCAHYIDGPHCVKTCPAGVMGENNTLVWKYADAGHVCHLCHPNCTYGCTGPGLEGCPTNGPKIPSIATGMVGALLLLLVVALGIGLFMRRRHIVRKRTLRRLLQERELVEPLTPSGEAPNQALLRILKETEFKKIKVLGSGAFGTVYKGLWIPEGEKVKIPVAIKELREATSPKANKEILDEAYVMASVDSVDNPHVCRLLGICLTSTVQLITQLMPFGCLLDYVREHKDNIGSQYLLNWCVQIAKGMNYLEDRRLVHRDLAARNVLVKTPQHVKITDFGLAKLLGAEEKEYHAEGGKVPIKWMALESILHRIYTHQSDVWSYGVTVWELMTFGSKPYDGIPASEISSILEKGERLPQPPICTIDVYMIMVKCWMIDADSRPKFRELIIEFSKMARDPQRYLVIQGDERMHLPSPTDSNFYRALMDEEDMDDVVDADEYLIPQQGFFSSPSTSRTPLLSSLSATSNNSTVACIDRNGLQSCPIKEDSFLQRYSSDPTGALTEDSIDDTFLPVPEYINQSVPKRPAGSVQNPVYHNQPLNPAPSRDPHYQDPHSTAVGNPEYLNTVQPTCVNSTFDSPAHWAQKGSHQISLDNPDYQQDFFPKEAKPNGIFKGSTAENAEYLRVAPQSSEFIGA

Row | SMILES | GI50 [1] [nM] | disease control rate [2] [%] | objective response rate [2] [%]
1 | C=CC(=O)Nc1cc(Nc2ncc(C(=O)OC(C)C)c(-c3cn(OC)c4c(C5CC5)cccc34)n2)c(OC)cc1N(C)CCN(C)C [Compound 5] | 58 | – | –
2 | C=CC(=O)Nc1cc(Nc2ncc(C(=O)OC(C)C)c(-c3cn(C)c4ccccc34)n2)c(OC)cc1N(C)CCN(C)C [TAK788] | – | 86 | 43
3 | C=CC(=O)Nc1cc(Nc2ncc(C(=O)OC(C)C)c(-c3cn(OC(C)C)c4ccccc34)n2)c(OC)cc1N(C)CCN(C)C [Compound 3] | 54 | – | –

Further lines, with some results ahead:

Row | GI50 [1] [nM] | SMILES | disease control rate [2] [%] | objective response rate [2] [%]
4 | 33 | C=CC(=O)Nc1cc(Nc2ncc(C(=O)OC(C)C)c(-c3cn(OC)c4c(Cl)cccc34)n2)c(OC)cc1N(C)CCN(C)C [Compound 4] | – | –
5 | 27 | C=CC(=O)Nc1cc(Nc2ncc(C(=O)OC(C)C)c(-c3cn(OCC)c4ccccc34)n2)c(OC)cc1N(C)CCN(C)C [Compound 2] | – | –
